This note sets out measurements from patent US20240245717A1, “ANTIVIRAL COMPOUNDS, COMPOSITIONS, AND USES THEREOF” (priority 2022, published 2024).

In assay [1] the test system is SARS-CoV-2 WAS-Calu-3. Also on record: species or system Golden Syrian Hamsters. Conditions: hamster, in vivo.
Assay [2] has as its system Pseudovirus rVSV-SARS-CoV-2. The assay is described as follows: microbe, parasite or virus in culture. The assay is classed as cell-based. Conditions: for IC50: Pseudovirus, Vero, 24 h, read-out: NT50.
Assay [3] has as its system SARS-CoV-2 isolate Hong Kong/VM20001061/2020. In words: microbe, parasite or virus in culture. The assay is classed as cell-based. Also on record: % of control: dose or concentration left out as unconfirmed. Conditions: 48 hours.

Where “and” joins values, the source holds several entries; their conditions need not be identical. Identical values can stand only once.

For the compound `CCCCOP(=O)(O)OC[C@H]1O[C@@H](n2cc(C)c(=O)[nH]c2=O)C[C@@H]1OP(=O)(O)OCCCC` [Nu-3, butyl-phosphate-5′-thymidine-3′-phosphate-butyl], in assay [1], the “body weight of infected, treated hamsters” value is listed as “began to regain body weight” and the “viral titers from harvested lungs” value is listed as “did not show any measurable viral particles, with the exception of one hamster”.
As to `CCCCOP(=O)(O)OC[C@H]1O[C@@H](n2ccc(N)nc2=O)C[C@@H]1OP(=O)(O)OCCCC` [Nu-8, ((2R,3S,5R)-5-(4-amino-2-oxopyrimidin-1(2H)-yl)-3-((butoxyoxidophosphor-yl)oxy)tetrahydrofuran-2-yl)methyl butyl phosphate], in assay [1], the “body weight of infected, treated hamsters” value is “began to regain body weight” and the “viral titers from harvested lungs” value was “no virus detected”.
With `CCCCOP(=O)(O)OC[C@H]1O[C@@H](n2ccc(N)nc2=O)[C@H](OC)[C@@H]1OP(=O)(O)OCCCC` [Nu-10, ((2R,3R,4R,5R)-5-(4-amino-2-oxopyrimidin-1(2H)-yl)-3-((butoxy(hydroxy)phosphoryl)oxy)-4-methoxytetrahydrofuran-2-yl) methyl butyl hydrogen phosphate], in assay [2], the “neutralization of SARS CoV-2 infection in vitro” value is “neutralize SARS CoV-2 infection in vitro” and the IC50 came out at 21.8 mg/mL. In addition, the “% of control” value in assay [3] is 3% and 8%. The compound further showed an inhibition at 3120 µg/mL in assay [3] (Severe acute respiratory syndrome coronavirus 2, HEK-293T, 3.12 mg/ml) of 97%.
Regarding `CCCCOP(=O)(O)OC[C@H]1O[C@@H](n2cnc3c(N)ncnc32)[C@H](OC)[C@@H]1OP(=O)(O)OCCCC` [Nu-11, (2R,3R,4R,5R)-5-(6-aminopurin-9-yl)-3-((butoxy(hydroxy)phosphoryl)oxy)-4-methoxytetrahydrofuran-2-yl)methyl butyl hydrogen phosphate], in assay [2], the “neutralization of SARS CoV-2 infection in vitro” value is “neutralize SARS CoV-2 infection in vitro” and the IC50 amounted to 1.15 mg/mL.

For orientation: inhibition means the share of the control response that was lost under treatment.
